Data as given in PubChem BioAssay AID248 (DTP/NCI, 2004).
Inconclusive results and toxic doses are left out. Rule as the data show it: active = T/C of 150% or more; inactive = T/C below 125%.

Test system: L1210 leukemia ip in BDF1 mice, survival T/C
Assay: NCI In Vivo Anticancer Drug Screen. Data for tumor model L1210 Leukemia (intraperitoneal) in B6D2F1 (BDF1) mice
Details: endpoint: mean survival time, higher = longer survival
Outline: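 Mice bearing the transplanted tumor received compound or vehicle. Survival of the treated group was divided by that of the vehicle-treated control group to give the ratio.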

[1] = dose: 100.0 mg/kg/injection, schedule: Q01DX009 (ip), vehicle: saline
[2] = dose: 200.0 mg/kg/injection, schedule: Q01DX009 (ip), vehicle: saline
[3] = dose: 400.0 mg/kg/injection, schedule: Q01DX009 (ip), vehicle: saline
[4] = dose: 200.0 mg/kg/injection, schedule: Q01DX001 (ip), vehicle: saline
[5] = dose: 400.0 mg/kg/injection, schedule: Q01DX001 (ip), vehicle: saline
[6] = dose: 100.0 mg/kg/injection, schedule: Q01DX009 (ip), vehicle: Klucel (hydroxypropylcellulose) (HPC)
[7] = dose: 200.0 mg/kg/injection, schedule: Q01DX009 (ip), vehicle: Klucel (hydroxypropylcellulose) (HPC)
[8] = dose: 400.0 mg/kg/injection, schedule: Q01DX009 (ip), vehicle: Klucel (hydroxypropylcellulose) (HPC)
[9] = dose: 100.0 mg/kg/injection, schedule: Q04DX003 (ip), vehicle: saline
[10] = dose: 200.0 mg/kg/injection, schedule: Q04DX003 (ip), vehicle: saline
[11] = dose: 400.0 mg/kg/injection, schedule: Q04DX003 (ip), vehicle: saline
[12] = dose: 100.0 mg/kg/injection, schedule: Q01DX001 (ip), vehicle: saline
[13] = dose: 100.0 mg/kg/injection, schedule: Q04DX003 (ip), vehicle: Klucel (hydroxypropylcellulose) (HPC)
[14] = dose: 200.0 mg/kg/injection, schedule: Q04DX003 (ip), vehicle: Klucel (hydroxypropylcellulose) (HPC)
[15] = dose: 400.0 mg/kg/injection, schedule: Q04DX003 (ip), vehicle: Klucel (hydroxypropylcellulose) (HPC)
[16] = dose: 100.0 mg/kg/injection, schedule: Q04DX002 (ip), vehicle: Klucel (hydroxypropylcellulose) (HPC)
[17] = dose: 200.0 mg/kg/injection, schedule: Q04DX002 (ip), vehicle: Klucel (hydroxypropylcellulose) (HPC)

Measured: T/C

O=C(Nc1cc([N+](=O)[O-])ccc1O)c1ccccc1Cl
inactive: [1] 101 % of control | [2] 97 % of control | [3] 98 % of control

CCCCC1(C)CCC(=O)O1 (stereo not given)
inactive: dose: 66.0 mg/kg/injection, schedule: Q01DX001 (ip), vehicle: Klucel (hydroxypropylcellulose) (HPC) 101 % of control | dose: 100.0 mg/kg/injection, schedule: Q01DX001 (ip), vehicle: Klucel (hydroxypropylcellulose) (HPC) 95 % of control | dose: 150.0 mg/kg/injection, schedule: Q01DX001 (ip), vehicle: Klucel (hydroxypropylcellulose) (HPC) 96 % of control | [4] 113 % of control | [5] 91 % of control

O=C(c1ccco1)C1Cc2ccccc2C1=O (stereo not given)
inactive: [6] 95 % of control | dose: 100.0 mg/kg/injection, schedule: Q04DX003 (ip), vehicle: alcohol 109 % of control | [7] 94 % of control | dose: 200.0 mg/kg/injection, schedule: Q04DX003 (ip), vehicle: alcohol 104 % of control | [8] 97 % of control | dose: 400.0 mg/kg/injection, schedule: Q04DX003 (ip), vehicle: alcohol 103 % of control

c1ccc2c(c1)[nH]c1nc3ncncc3nc12
inactive: [9] 94 % of control | [10] 88 % of control | [11] 97 % of control

CC1(C)C2CCC1(C)C(OC(=O)c1ccc([N+](=O)[O-])cc1)C2OC(=O)c1ccc([N+](=O)[O-])cc1 (stereo not given)
inactive: dose: 75.0 mg/kg/injection, schedule: Q01DX009 (ip), vehicle: saline 108 % of control | dose: 150.0 mg/kg/injection, schedule: Q01DX009 (ip), vehicle: saline 103 % of control | dose: 300.0 mg/kg/injection, schedule: Q01DX009 (ip), vehicle: saline 97 % of control

O=C(O)C/C=C/C(=O)NCc1cccnc1
inactive: [12] 97 % of control | [4] 97 % of control | [5] 88 % of control

NC(=O)c1[nH]cnc1N
inactive: [12] 97 % of control | [4] 101 % of control | [5] 97 % of control

OCC(CO)(CO)CBr
inactive: [1] 96 % of control | [9] 103 % of control | [2] 105 % of control | [10] 98 % of control | [3] 104 % of control | [11] 104 % of control

O=c1[nH]c(SCc2ccc([N+](=O)[O-])cc2)nc2ccccc12
inactive: [13] 111 % of control | [14] 102 % of control | [15] 94 % of control

C=CCc1ccccc1NC(=O)NCCCl
inactive: dose: 50.0 mg/kg/injection, schedule: Q01DX009 (ip), vehicle: Klucel (hydroxypropylcellulose) (HPC) 106 % of control | [6] 100 % of control | [13] 93 % of control | [7] 111 % of control | [14] 104 % of control

CCN(Cc1ccccc1)C(=O)Nc1cccc(Cl)c1
inactive: dose: 100.0 mg/kg/injection, schedule: Q01DX009 (ip), vehicle: other 106 % of control | dose: 200.0 mg/kg/injection, schedule: Q01DX009 (ip), vehicle: other 108 % of control | dose: 400.0 mg/kg/injection, schedule: Q01DX009 (ip), vehicle: other 105 % of control

Cc1cc(C)c([N+](=O)[O-])c(C)c1
inactive: [6] 104 % of control | [7] 97 % of control | [8] 92 % of control

COC(=O)c1nc2ccc([N+](=O)[O-])cc2n1O
inactive: [12] 101 % of control | [4] 93 % of control | [5] 96 % of control

COC(=O)CNC(=O)c1cccc([N+](=O)[O-])c1
inactive: [12] 96 % of control | [4] 94 % of control | [5] 97 % of control

C(C#Cc1ccccc1)#Cc1ccccc1
inactive: [9] 94 % of control | [10] 100 % of control | [11] 97 % of control

COC(=O)C1=C(O)CCCC=C1C(=O)O
inactive: dose: 100.0 mg/kg/injection, schedule: Q01DX001 (ip), vehicle: carboxymethylcellulose (CMC) 100 % of control | dose: 200.0 mg/kg/injection, schedule: Q01DX001 (ip), vehicle: carboxymethylcellulose (CMC) 103 % of control | dose: 400.0 mg/kg/injection, schedule: Q01DX001 (ip), vehicle: carboxymethylcellulose (CMC) 103 % of control

c1ccc(C2OC2c2ccccc2)cc1 (stereo not given)
inactive: [6] 98 % of control | [16] 107 % of control | [13] 110 % of control | [7] 102 % of control | [17] 110 % of control | [14] 100 % of control | [8] 104 % of control | dose: 400.0 mg/kg/injection, schedule: Q04DX002 (ip), vehicle: Klucel (hydroxypropylcellulose) (HPC) 93 % of control | [15] 109 % of control

CC(=O)OC(C(O)C=O)C(O)C(O)CO (stereo not given) (tested in a mixture with another compound)
inactive: [16] 107 % of control | [17] 88 % of control

CC(=O)Nc1c(C(N)=O)ncn1C1OC(COC(C)=O)C(OC(C)=O)C1OC(C)=O (stereo not given)
inactive: dose: 100.0 mg/kg/injection, schedule: Q01DX005 (ip), vehicle: saline 96 % of control | dose: 200.0 mg/kg/injection, schedule: Q01DX005 (ip), vehicle: saline 100 % of control

CCCCCCCCCCCC(=O)Nc1cc(Cl)c(OC)cc1OC
inactive: [6] 95 % of control | [7] 92 % of control | [8] 93 % of control

c1ccc(C2(NC3=NCCO3)CCCCC2)cc1
inactive: dose: 10.0 mg/kg/injection, schedule: Q01DX009 (ip), vehicle: Klucel (hydroxypropylcellulose) (HPC) 101 % of control | dose: 20.0 mg/kg/injection, schedule: Q01DX009 (ip), vehicle: Klucel (hydroxypropylcellulose) (HPC) 97 % of control | dose: 40.0 mg/kg/injection, schedule: Q01DX009 (ip), vehicle: Klucel (hydroxypropylcellulose) (HPC) 101 % of control | dose: 75.0 mg/kg/injection, schedule: Q01DX009 (ip), vehicle: Klucel (hydroxypropylcellulose) (HPC) 107 % of control

Cc1ccc(Cl)cc1NS(=O)(=O)c1ccc(Br)cc1
inactive: dose: 100.0 mg/kg/injection, schedule: Q01DX009 (ip), vehicle: saline with Tween-80 95 % of control | dose: 100.0 mg/kg/injection, schedule: Q04DX003 (ip), vehicle: saline with Tween-80 88 % of control | dose: 200.0 mg/kg/injection, schedule: Q01DX009 (ip), vehicle: saline with Tween-80 90 % of control | dose: 200.0 mg/kg/injection, schedule: Q04DX003 (ip), vehicle: saline with Tween-80 94 % of control | dose: 400.0 mg/kg/injection, schedule: Q01DX009 (ip), vehicle: saline with Tween-80 90 % of control | dose: 400.0 mg/kg/injection, schedule: Q04DX003 (ip), vehicle: saline with Tween-80 94 % of control

COC(=O)c1ccc(Cl)cc1[N+](=O)[O-]
inactive: [1] 101 % of control | [2] 100 % of control | [3] 100 % of control

CN(C)P1N(C)CCN1C
inactive: [12] 95 % of control | [4] 106 % of control | [5] 87 % of control
